Experimental data reported in US10590106B2, “Certain chemical entities, compositions, and methods” (NeuPharma, Inc., priority 2012, dated 2020).
pIC50: −log10 of the molar value.

Key:
A549 cells = experiment: Inhibition of cancer cell growth, MTT or MTS assay, A549; assay type: cell-based; conditions: Homo sapiens, 72 h incubation
Protocol: (§1) Inhibition of cell growth by compounds was measured using MTT or MTS assay. Tumor cell lines were purchased from ATCC (American Type Culture Collection, Manassas, Va.). All cell lines were maintained in RPMI 1640 (Hyclone) supplemented with 10% fetal bovine serum (FBS, Hyclone), glutamine (2 mM, Hyclone), and antibiotics (penicillin 100 U/mL and streptomycin 50 μg/mL) at 37° C. in a humidified atmosphere of 5% CO2 in air. Taxol (as a positive control, Sigma) and compounds were dissolved in DMSO (Sigma), and the final concentration of DMSO in the medium was 1%. Tumor cells were plated in 96-well plates at densities of about 2000 (A375) or 4000 (A549 and Colo205) cells/well of a 96-well plate and allowed to adhere/grow for 24 h. They were then treated with various concentrations of drug and incubated for 72 h. For MTT method, medium was then removed by inverting and tapping the plates. 100 μL of MTT (0.5 mg/ml) was added to each well followed by an incubated at 37° C. for 4 h. MTT was then removed and 200 μL of DMSO was added to each well, and the ODs at 570 nm were measured after a 5 second shaking cycle in a 96-well spectrophotometer. For MTS method, 20 μL MTS (CellTiter 96 Aqueous One Solution, Promega) was added to each well followed by an incubated at 37° C. for 2-4 h, solutions were then directly put in a 96-well spectrophotometer, and the ODs at 490 nm were measured.
(§2) All concentrations of compounds were tested in triplicate and controls were averaged over 4 wells. IC50 was calculated by plotting the concentration of compound vs the percentage of inhibition in treated wells using GraphPad Prism 5. […] The scale utilized in Tables […] is as follows: +++ less than 1000 nM; ++ between 1000 nM and 5000 nM; and + greater than 5000 nM. The scale utilized in Table 8 is as follows: +++ less than 2000 nM; ++ between 2000 nM and 5000 nM; and + greater than 5000 nM.

KDR (VEGFR2) = KDR (VEGFR2) (Homo sapiens (Human), UniProt P35968); experiment: Inhibitory activity against kinase KDR, Z'-LYTE method (Invitrogen); assay type: biochemical; conditions: for inhibition at 1 µM: 1 μM compound, read-out: Inhibition (% inhibition at 1 μM) against KDR
Protocol: Inhibitory activities of compounds against KDR (VEGFR2) were also measured by Invitrogen using Z′-LYTE® Method as described above with the following modification. The 2× KDR (VEGFR2)/Tyr 01 mixture is prepared in 50 mM HEPES pH 7.5, 0.01% BRIJ-35, 10 mM MgCl2, 1 mM EGTA. The final 10 μL Kinase Reaction consists of 0.5-11.7 ng KDR (VEGFR2) and 2 μM Tyr 01 in 50 mM HEPES pH 7.5, 0.01% BRIJ-35, 10 mM MgCl2, 1 mM EGTA. After the 1 hour Kinase Reaction incubation, 5 μL of a 1:256 dilution of Development Reagent B is added.
The scale utilized in Table 5 is as follows: +++ less than 100 nM; and ++ greater than 100 nM

BRAF V600E = BRAF V600E (Homo sapiens (Human), UniProt P15056, V600E); experiment: Inhibitory activity against kinase BRAF V600E, Z'-LYTE method (Invitrogen); assay type: biochemical; conditions: for inhibition at 1 µM: 1 μM compound, read-out: Inhibition (% inhibition at 1 μM) against BRAF V600E
Protocol: Inhibitory activities Inhibitory activities of compounds against BRAF, and BRAF V600E were measured by Invitrogen using Z′-LYTE® Method as briefly described in the following. 4× Test compounds are dissolved in 1% DMSO. […] ATP solutions are diluted to a 4×ATP working concentration in Kinase Buffer (50 mM HEPES pH 7.5, 0.01% BRIJ-35, 10 mM MgCl2, 1 mM EGTA). Reaction started by 30-second shaking of mixture consisting of 2.5 μL 4× test compound, […] and 2.5 μL 4×ATP Solution on Bar-coded Corning, low volume NBS, black 384-well plate (Corning Cat. #3676). Then the mixture was incubated for 60-minute at room temperature for the kinase reaction, followed by addition of 5 μL of a 1:1024 dilution of development reagent A and 30-second plate shake. The mixture was then incubated for another 60-minute at room temperature for development reaction. Fluorescence was read by plate reader. IC50 was calculated by plotting the concentration of compound vs the percentage of inhibition in treated wells using GraphPad Prism 5.
Table 2 and 3 show % inhibition at 1 μM of several compounds of the invention against BRAF and BRAF V600E, respectively, using Z′-LYTE® method.
The scale utilized in Table 4 is as follows: +++ less than 100 nM; and ++ greater than 100 nM.

A375 cells = experiment: Inhibition of cancer cell growth, MTT or MTS assay, A375; assay type: cell-based; conditions: Homo sapiens, A-375; 72 h incubation
Protocol: as §1, §2

KDR (VEGFR2), sequence (P35968 20-1356): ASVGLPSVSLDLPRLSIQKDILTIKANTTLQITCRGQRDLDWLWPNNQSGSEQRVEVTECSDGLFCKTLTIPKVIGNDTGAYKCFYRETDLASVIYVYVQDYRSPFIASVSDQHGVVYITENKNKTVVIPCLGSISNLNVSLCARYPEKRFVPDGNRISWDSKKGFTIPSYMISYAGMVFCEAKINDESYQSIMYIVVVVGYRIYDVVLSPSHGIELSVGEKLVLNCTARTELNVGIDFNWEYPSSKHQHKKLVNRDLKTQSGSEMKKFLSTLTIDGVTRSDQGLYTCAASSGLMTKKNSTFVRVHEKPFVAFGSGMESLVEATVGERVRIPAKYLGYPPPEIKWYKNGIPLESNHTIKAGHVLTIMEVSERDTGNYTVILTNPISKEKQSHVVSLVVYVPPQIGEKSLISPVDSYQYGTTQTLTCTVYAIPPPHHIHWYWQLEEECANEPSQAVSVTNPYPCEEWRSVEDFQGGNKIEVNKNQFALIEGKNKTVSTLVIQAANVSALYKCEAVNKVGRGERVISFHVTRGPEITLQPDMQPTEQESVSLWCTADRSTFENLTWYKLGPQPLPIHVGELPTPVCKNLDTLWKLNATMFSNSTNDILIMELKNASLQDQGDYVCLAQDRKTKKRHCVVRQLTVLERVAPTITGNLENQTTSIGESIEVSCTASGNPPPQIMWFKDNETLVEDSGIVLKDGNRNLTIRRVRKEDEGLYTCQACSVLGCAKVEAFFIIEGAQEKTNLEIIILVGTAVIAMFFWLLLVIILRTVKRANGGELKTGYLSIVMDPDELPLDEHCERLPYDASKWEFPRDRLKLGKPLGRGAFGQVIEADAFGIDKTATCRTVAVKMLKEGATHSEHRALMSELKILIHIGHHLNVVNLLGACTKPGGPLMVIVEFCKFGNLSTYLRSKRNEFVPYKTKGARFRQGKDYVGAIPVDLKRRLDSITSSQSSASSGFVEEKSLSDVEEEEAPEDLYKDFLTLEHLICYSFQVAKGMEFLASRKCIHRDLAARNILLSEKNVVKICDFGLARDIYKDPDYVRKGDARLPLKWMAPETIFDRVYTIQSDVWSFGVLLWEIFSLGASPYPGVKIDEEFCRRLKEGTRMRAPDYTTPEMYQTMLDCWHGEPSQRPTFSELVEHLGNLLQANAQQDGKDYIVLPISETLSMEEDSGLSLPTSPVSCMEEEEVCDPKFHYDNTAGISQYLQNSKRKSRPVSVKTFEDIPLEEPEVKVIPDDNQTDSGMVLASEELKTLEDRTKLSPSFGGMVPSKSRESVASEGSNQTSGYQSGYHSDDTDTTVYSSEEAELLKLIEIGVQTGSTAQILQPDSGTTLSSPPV
BRAF V600E, sequence (P15056 whole entry V600E): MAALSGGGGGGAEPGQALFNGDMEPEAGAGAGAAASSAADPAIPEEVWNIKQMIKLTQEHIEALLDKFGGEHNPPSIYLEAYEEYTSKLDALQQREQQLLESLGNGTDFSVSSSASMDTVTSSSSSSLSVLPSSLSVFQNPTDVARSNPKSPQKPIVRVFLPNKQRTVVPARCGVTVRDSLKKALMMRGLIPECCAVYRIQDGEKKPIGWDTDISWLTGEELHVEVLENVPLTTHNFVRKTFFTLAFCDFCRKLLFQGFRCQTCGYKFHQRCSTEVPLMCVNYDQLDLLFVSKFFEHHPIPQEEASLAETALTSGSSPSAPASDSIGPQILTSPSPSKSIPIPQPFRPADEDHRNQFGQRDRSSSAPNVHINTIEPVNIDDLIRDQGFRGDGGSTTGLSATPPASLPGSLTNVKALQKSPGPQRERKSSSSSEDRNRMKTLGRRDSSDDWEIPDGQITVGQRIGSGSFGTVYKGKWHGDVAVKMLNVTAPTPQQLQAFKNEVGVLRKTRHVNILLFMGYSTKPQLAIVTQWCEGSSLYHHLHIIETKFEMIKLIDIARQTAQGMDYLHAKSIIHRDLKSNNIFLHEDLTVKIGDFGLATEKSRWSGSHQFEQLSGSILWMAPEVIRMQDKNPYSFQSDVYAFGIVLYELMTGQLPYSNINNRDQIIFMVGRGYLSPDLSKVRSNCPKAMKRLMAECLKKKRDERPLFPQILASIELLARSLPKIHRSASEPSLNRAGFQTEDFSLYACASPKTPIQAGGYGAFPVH

SMILES | pIC50 (A549 cells) | pIC50 (KDR (VEGFR2)) | inhibition at 1 µM (KDR (VEGFR2)) [%] | pIC50 (BRAF V600E) | inhibition at 1 µM (BRAF V600E) [%] | pIC50 (A375 cells)
O=C(Nc1ccc(F)c(Oc2ccc3ncc(N4CCOCC4)nc3c2)c1)Nc1ccc(Cl)c(C(F)(F)F)c1 [Compound C009, 1-(4-chloro-3-(trifluoromethyl)phenyl)-3-(4-fluoro-3-((3-morpholinoquinoxalin-6-yl)oxy)phenyl)urea] | > 5.70 | < 7.00 | > 89 | < 7.00 | < 70 | > 6.00
O=C(Nc1ccc(F)c(Oc2ccc3nccnc3c2)c1)c1ccc(Cl)c(C(F)(F)F)c1 [Compound C010, 4-chloro-N-(4-fluoro-3-(quinoxalin-6-yloxy)phenyl)-3-(trifluoromethyl)benzamide] | 5.30 to 5.70 | – | 70 to 89 | – | 70 to 89 | < 5.30
CCCS(=O)(=O)Nc1ccc(F)c(Oc2ccc3nccnc3c2)c1 [Compound C013, N-(4-fluoro-3-(quinoxalin-6-yloxy)phenyl)propane-1-sulfonamide] | < 5.30 | – | – | – | – | < 5.30
O=C(Nc1cc(F)cc(Oc2ccc3nccnc3c2)c1)c1cccc(F)c1 [Compound C014, 3-fluoro-N-(3-fluoro-5-(quinoxalin-6-yloxy)phenyl)benzamide] | < 5.30 | – | – | – | 70 to 89 | < 5.30
O=C(Nc1cc(F)cc(Oc2ccc3nccnc3c2)c1)c1cccc(C(F)(F)F)c1 [Compound C015, N-(3-fluoro-5-(quinoxalin-6-yloxy)phenyl)-3-(trifluoromethyl)benzamide] | < 5.30 | – | < 70 | – | > 89 | < 5.30
O=C(Nc1ccc(F)c(Oc2ccc3nccnc3c2)c1)c1cccc(C(F)(F)F)c1 [Compound C018, N-(4-fluoro-3-(quinoxalin-6-yloxy)phenyl)-3-(trifluoromethyl)benzamide] | < 5.30 | – | 70 to 89 | – | > 89 | 5.30 to 6.00
O=C(Nc1cccc(F)c1)Nc1cc(F)cc(Oc2ccc3nccnc3c2)c1 [Compound C020, 1-(3-fluoro-5-(quinoxalin-6-yloxy)phenyl)-3-(3-fluorophenyl)urea] | 5.30 to 5.70 | – | – | – | 70 to 89 | < 5.30
O=C(Nc1cccc(C(F)(F)F)c1)Nc1ccc(F)c(Oc2ccc3nccnc3c2)c1 [Compound C024, 1-(4-fluoro-3-(quinoxalin-6-yloxy)phenyl)-3-(3-(trifluoromethyl)phenyl)urea] | > 5.70 | – | 70 to 89 | – | > 89 | 5.30 to 6.00
O=C(Nc1ccc(F)c(Oc2ccc3ncc(N4CCOCC4)nc3c2)c1)c1cccc(F)c1 [Compound C025, 3-fluoro-N-(4-fluoro-3-((3-morpholinoquinoxalin-6-yl)oxy)phenyl)benzamide] | < 5.30 | – | 70 to 89 | – | 70 to 89 | < 5.30
O=C(Nc1ccc(F)c(Oc2ccc3ncc(N4CCOCC4)nc3c2)c1)c1cccc(C(F)(F)F)c1 [Compound C026, N-(4-fluoro-3-((3-morpholinoquinoxalin-6-yl)oxy)phenyl)-3-(trifluoromethyl)benzamide] | 5.30 to 5.70 | – | > 89 | – | 70 to 89 | 5.30 to 6.00
O=C(Nc1cccc(F)c1)Nc1cc(F)cc(Oc2ccc3ncc(N4CCOCC4)nc3c2)c1 [Compound C031, 1-(3-fluoro-5-((3-morpholinoquinoxalin-6-yl)oxy)phenyl)-3-(3-fluorophenyl)urea] | < 5.30 | – | < 70 | – | > 89 | < 5.30
O=C(Nc1ccc(Oc2ccc3nccnc3c2)cc1)c1cccc(F)c1 [Compound C077, 3-fluoro-N-(4-(quinoxalin-6-yloxy)phenyl)benzamide] | < 5.30 | – | – | – | < 70 | 5.30 to 6.00
CCCS(=O)(=O)Nc1ccc(Oc2ccc3nccnc3c2)cc1 [Compound C080, N-(4-(quinoxalin-6-yloxy)phenyl)propane-1-sulfonamide] | < 5.30 | – | – | – | – | < 5.30
O=C(Nc1ccc(C(F)(F)F)cc1)Nc1ccc(Oc2ccc3nccnc3c2)cc1F [Compound C097, 1-(2-fluoro-4-(quinoxalin-6-yloxy)phenyl)-3-(4-(trifluoromethyl)phenyl)urea] | < 5.30 | – | – | – | 70 to 89 | < 5.30

More lines, now with the values ahead:

pIC50 (A549 cells) | pIC50 (KDR (VEGFR2)) | inhibition at 1 µM (KDR (VEGFR2)) [%] | pIC50 (BRAF V600E) | inhibition at 1 µM (BRAF V600E) [%] | pIC50 (A375 cells) | SMILES
> 5.70 | – | 70 to 89 | – | < 70 | > 6.00 | O=C(Nc1ccc(F)c(Oc2ccc3nccnc3c2)c1)Nc1ccc(Cl)c(C(F)(F)F)c1 [Compound C011, 1-(4-chloro-3-(trifluoromethyl)phenyl)-3-(4-fluoro-3-(quinoxalin-6-yloxy)phenyl)urea]
< 5.30 | – | – | – | > 89 | < 5.30 | O=C(Nc1cc(F)cc(Oc2ccc3nccnc3c2)c1)c1ccc(Cl)c(C(F)(F)F)c1 [Compound C016, 4-chloro-N-(3-fluoro-5-(quinoxalin-6-yloxy)phenyl)-3-(trifluoromethyl)benzamide]
> 5.70 | – | 70 to 89 | – | 70 to 89 | > 6.00 | O=C(Nc1cc(F)cc(Oc2ccc3nccnc3c2)c1)Nc1ccc(Cl)c(C(F)(F)F)c1 [Compound C022, 1-(4-chloro-3-(trifluoromethyl)phenyl)-3-(3-fluoro-5-(quinoxalin-6-yloxy)phenyl)urea]
5.30 to 5.70 | – | < 70 | – | > 89 | 5.30 to 6.00 | O=C(Nc1cccc(F)c1)Nc1ccc(F)c(Oc2ccc3nccnc3c2)c1 [Compound C023, 1-(4-fluoro-3-(quinoxalin-6-yloxy)phenyl)-3-(3-fluorophenyl)urea]
< 5.30 | – | 70 to 89 | – | 70 to 89 | 5.30 to 6.00 | O=C(Nc1cc(F)cc(Oc2ccc3ncc(N4CCOCC4)nc3c2)c1)c1cccc(F)c1 [Compound C027, 3-fluoro-N-(3-fluoro-5-((3-morpholinoquinoxalin-6-yl)oxy)phenyl)benzamide]
5.30 to 5.70 | – | 70 to 89 | – | 70 to 89 | 5.30 to 6.00 | O=C(Nc1cc(F)cc(Oc2ccc3ncc(N4CCOCC4)nc3c2)c1)c1ccc(Cl)c(C(F)(F)F)c1 [Compound C029, 4-chloro-N-(3-fluoro-5-((3-morpholinoquinoxalin-6-yl)oxy)phenyl)-3-(trifluoromethyl)benzamide]
5.30 to 5.70 | – | 70 to 89 | – | 70 to 89 | 5.30 to 6.00 | O=C(Nc1cc(F)cc(Oc2ccc3ncc(N4CCOCC4)nc3c2)c1)Nc1cccc(C(F)(F)F)c1 [Compound C032, 1-(3-fluoro-5-((3-morpholinoquinoxalin-6-yl)oxy)phenyl)-3-(3-(trifluoromethyl)phenyl)urea]
< 5.30 | – | – | – | < 70 | < 5.30 | O=C(Nc1ccc(Oc2ccc3nccnc3c2)cc1)c1ccc(Cl)c(C(F)(F)F)c1 [Compound C079, 4-chloro-N-(4-(quinoxalin-6-yloxy)phenyl)-3-(trifluoromethyl)benzamide]
